Measurements from PMC2074590 (British Journal of Cancer, 1996).
Entries after “also recorded” stand apart in the source; their conditions may differ.

Tests used:
[1] = tested on: endometrial proliferation; parameters: method as in Dukes et al., 1993; conditions: primates, at serum concentrations similar to the present study; ref Dukes et al., 1993; cited from earlier work
endometrium = assay: Endometrial assessment (transabdominal ultrasound thickness, histology); assay type: in vivo, human
Description: (§1) Bridsh Journal of Cancer (1996) 74, 300-308 ? […] The agent was administered as a monthly depot intramuscular injection. […] The study was approved by the ethics committees of each clinical centre. Patients were eligible for the study if they were post- menopausal and age less than 81 years, with histologically verified breast cancer. […] Patients were excluded if they had serious intercurrent disease, a WHO performance status of greater than 2, and a life expectancy of less than 3 months or had received previous cytotoxic chemotherapy for advanced breast cancer. […] Patients 5-19 received 250 mg month-1 i.m. from the outset. […] Tumour response to therapy was evaluated according to UICC criteria (Hayward et al., 1977). […] Body weight was recorded at each monthly review in the majority of patients. […] The study limit of quantification was 0.68 ng ml-'. […] Gonadotrophins follicle-stimulating hormone and lutenising hormone (FSH and LH) and SHBG were measured by RIA in the Regional Radioimmunoassay Laboratory of the University Hospital of South Manchester. Prolactin was measured by immunoradiometric assay using reagents supplied by Netria. Total cholesterol levels were determined enzymatically using a commercially available reagent (Diamed, Switzerland). […] Serum levels of LDL cholesterol were calculated using the Friedewald equation (Friedewald et al., 1972). […]

[2] = tested on: total cholesterol, LDL cholesterol, HDL cholesterol, triglyceride; assay: Serum lipid levels during treatment; assay type: in vivo, human; conditions: 12 patients
Description: as §1

[3] = Side-effects, local and systemic drug tolerability; assay type: in vivo, human
Description: (§2) Bridsh Journal of Cancer (1996) 74, 300-308 ? […] The agent was administered as a monthly depot intramuscular injection. […] The study was approved by the ethics committees of each clinical centre. Patients were eligible for the study if they were post- menopausal and age less than 81 years, with histologically verified breast cancer. […] Patients were excluded if they had serious intercurrent disease, a WHO performance status of greater than 2, and a life expectancy of less than 3 months or had received previous cytotoxic chemotherapy for advanced breast cancer. […] Patients 5-19 received 250 mg month-1 i.m. from the outset. […] Tumour response to therapy was evaluated according to UICC criteria (Hayward et al., 1977). To qualify for the 'no change' category, tumour growth had to stabilise for more than 6 months (Howell et al., 1988; Robertson et al., 1989). Body weight was recorded at each monthly review in the majority of patients. […] The procedure was applied after solid base clean up of a diethyl ether/hexane extract of serum. The study limit of quantification was 0.68 ng ml-'. […] Gonadotrophins follicle-stimulating hormone and lutenising hormone (FSH and LH) and SHBG were measured by RIA in the Regional Radioimmunoassay Laboratory of the University Hospital of South Manchester. Prolactin was measured by immunoradiometric assay using reagents supplied by Netria. Total cholesterol levels were determined enzymatically using a commercially available reagent (Diamed, Switzerland). Triglyceride levels were determined by the glyceryl phosphate oxidase-peroxidase-antiperox- idase method using a commercially available kit (Boehringer Mannheim, Germany). High-density lipoprotein (HDL) cholesterol levels were measured after pretreatment of the serum samples with buffered magnesium phosphotungstate, which selectively precipitates low-density lipoprotein (LDL) cholesterol, very low-density lipoprotein (VLDL) cholesterol and chylomicrons, leaving HDL cholesterol in the super- natant. Serum levels of LDL cholesterol were calculated using the Friedewald equation (Friedewald et al., 1972). Endometrial assessment Endometrial thickness was measured in transverse section by transabdominal ultrasound using a Siemens Sonoline SL2 with a 3.5 MHz sector probe. Baseline and repeat scans at 3-6 monthly intervals were performed in five patients. […] Pharmacokinectic data were analysed using para- metric statistics. Data relating to body weight, serum gonadotrophin, SHBG and lipid levels were analysed using non-parametric statistics. The null hypothesis was rejected at a probability level of P<0.05. […] However, samples were not available between day 2 and day 8.

[4] = tested on: advanced breast cancer resistant to tamoxifen; assay: Tumour response to therapy, UICC criteria; assay type: in vivo, human; parameters: key to Response to 182780: PD: progressive disease; NC: no change; PR: partial response
Description: as §2

SMILES: C[C@]12CC[C@@H]3c4ccc(O)cc4C[C@@H](CCCCCCCCC[S+]([O-])CCCC(F)(F)C(F)(F)F)[C@H]3[C@@H]1CC[C@@H]2O (some centres unmarked) [ICI 182780, 7a-[9(4,4,5,5,pentafluoropentyl-sulphinyl)nonyl]oestra-1 ,3,5,(10)-triene-3,17,B-diol]
- Effect on endometrial proliferation [1]: inhibited endometrial proliferation
- Endometrial histology (endometrium; one patient, hysterectomy after 18 months on treatment): atrophic post-menopausal pattern with cystic change
- Endometrial thickness / effect on endometrium (endometrium; serial ultrasound in five responding patients, up to 15 months): no apparent effect; also recorded: remained unchanged
- Change in serum lipids (total cholesterol, LDL cholesterol, HDL cholesterol, triglyceride) [2]: no significant changes
- Serious drug-related adverse events ([3]; 19 patients): No serious drug-related adverse events
- Vaginal dryness or altered libido ([3]; direct questioning at each monthly attendance): None of the patients reported
- Frequency of side-effects ([3]; in vivo): infrequent
- Full blood count and biochemical profile ([3]; in vivo): No clinically significant changes
- Hot flushes and night sweats ([3]; in vivo): not induced; also recorded: not associated with any alteration
- Injection-site events: erythema ([3]; in vivo): a third patient had local erythema at the injection site on one occasion
- Local tolerance at the site of injection ([3]; long-acting formulation, 5 ml i.m.): well tolerated locally
- Patients reporting minor systemic adverse events ([3]; of 19 patients): two
- Injection-site events: bruising, tenderness ([3]; one occasion each): One patient developed bruising over the buttock and a second developed tenderness at the injection site
- Median duration of response ([4]; 13 responding patients): 25 months
- Partial response rate ([4]; 19 patients): 37%
- Progression rate ([4]; 19 patients): 31%
- Patients responding (partial response + no change) ([4]; 19 patients, after progression on tamoxifen): 69%
- No change response rate ([4]; 19 patients, stabilisation for more than 6 months): 32%
- Duration of response ([4]; NC patient with 61 months adjuvant tamoxifen (A61, = patient 15), from Table III): ≥ 23 months
- Patients still in remission and continuing treatment ([4]; after 30-33 months): five
- Association between duration of treatment with tamoxifen and subsequent response ([4]; in vivo): no association
- Responses in women who progressed while receiving tamoxifen for advanced breast cancer ([4]; in vivo): six of the nine
- Responses in women who relapsed after tamoxifen as adjuvant therapy ([4]; in vivo): seven of the ten
- Number of patients with progression ([4]; of 19 patients): 6 patients
- Response to 182780 ([4]; patient 1 (donor kappa)): PD
- Duration of response ([4]; patient 1, PD): < 2 months
- Response to 182780 ([4]; patient 2 (donor eta)): NC
- Duration of response ([4]; patient 2, NC): 29 months
- Response to 182780 ([4]; patient 3 (donor mu)): PR
- Duration of response ([4]; patient 3, PR): 12 months
- Response to 182780 ([4]; patient 4 (donor lambda)): PD
- Duration of response ([4]; patient 4, PD): < 2 months
- Response to 182780 ([4]; patient 5 (donor sigma)): PR
- Duration of response ([4]; patient 5, PR): 8 months
- Response to 182780 ([4]; patient 6 (donor delta)): PR
- Duration of response ([4]; patient 6, PR): 3 months
- Response to 182780 ([4]; patient 7 (donor gamma)): PD
- Duration of response ([4]; patient 7, PD): < 2 months
- Response to 182780 ([4]; patient 8 (donor theta)): PR
- Duration of response ([4]; patient 8, PR): 25 months
- Response to 182780 ([4]; patient 9 (NT)): PD
- Duration of response ([4]; patient 9, PD): < 2 months
- Response to 182780 ([4]; patient 10 (donor iota)): PR
- Duration of response ([4]; patient 10, PR, + = continuing): ≥ 33 months
- Response to 182780 ([4]; patient 11 (donor epsilon)): PD
- Duration of response ([4]; patient 11, PD): < 2 months
- Response to 182780 ([4]; patient 12 (donor nu)): NC
- Duration of response ([4]; patient 12, NC, + = continuing): ≥ 33 months
- Response to 182780 ([4]; patient 13 (donor tau)): PD
- Duration of response ([4]; patient 13, PD): < 2 months
- Response to 182780 ([4]; patient 14 (donor xi)): PR
- Duration of response ([4]; patient 14, PR, + = continuing): ≥ 32 months
- Response to 182780 ([4]; patient 15 (donor omicron)): NC
- Response to 182780 ([4]; patient 16 (donor rho)): PR
- Duration of response ([4]; patient 16, PR): 25 months
- Response to 182780 ([4]; patient 17 (donor zeta)): NC
- Duration of response ([4]; patient 17, NC): 9 months
- Response to 182780 ([4]; patient 18 (donor beta)): NC
- Duration of response ([4]; patient 18, NC, + = continuing): ≥ 30 months
- Response to 182780 ([4]; patient 19 (donor pi)): NC
- Duration of response ([4]; patient 19, NC, + = continuing): ≥ 30 months
- Time to objective disease progression in unresponsive patients ([4]; six patients unresponsive de novo): ≤ 2 months
